Data from paper PMC3961306, “Comparison of the Cancer Gene Targeting and Biochemical Selectivities of All Targeted Kinase Inhibitors Approved for Clinical Use” (PLoS ONE, 2014).

Experiments:
Assay in all cases: Kinase profiling in a biochemical assay panel (mobility shift assays and ELISA), %-inhibition at 1 μM; selectivity entropy
[1] = target: panel of more than 300 wild-type and mutant kinases (313 kinase panel) (Homo sapiens, UniProt P08581, Y1235D); conditions: kinase MET(Y1235D); compound at 1 μM
[2] = target: panel of more than 300 wild-type and mutant kinases (313 kinase panel) (Homo sapiens, UniProt P29376); conditions: kinase LTK; compound at 1 μM
[3] = target: panel of more than 300 wild-type and mutant kinases (313 kinase panel) (Homo sapiens, UniProt P07949, Y791F)
[4] = target: T1, panel of more than 300 wild-type and mutant kinases (313 kinase panel) (Homo sapiens, UniProt P36888); conditions: kinase FLT3; compound at 1 μM
T1 sequence (P36888 27-993): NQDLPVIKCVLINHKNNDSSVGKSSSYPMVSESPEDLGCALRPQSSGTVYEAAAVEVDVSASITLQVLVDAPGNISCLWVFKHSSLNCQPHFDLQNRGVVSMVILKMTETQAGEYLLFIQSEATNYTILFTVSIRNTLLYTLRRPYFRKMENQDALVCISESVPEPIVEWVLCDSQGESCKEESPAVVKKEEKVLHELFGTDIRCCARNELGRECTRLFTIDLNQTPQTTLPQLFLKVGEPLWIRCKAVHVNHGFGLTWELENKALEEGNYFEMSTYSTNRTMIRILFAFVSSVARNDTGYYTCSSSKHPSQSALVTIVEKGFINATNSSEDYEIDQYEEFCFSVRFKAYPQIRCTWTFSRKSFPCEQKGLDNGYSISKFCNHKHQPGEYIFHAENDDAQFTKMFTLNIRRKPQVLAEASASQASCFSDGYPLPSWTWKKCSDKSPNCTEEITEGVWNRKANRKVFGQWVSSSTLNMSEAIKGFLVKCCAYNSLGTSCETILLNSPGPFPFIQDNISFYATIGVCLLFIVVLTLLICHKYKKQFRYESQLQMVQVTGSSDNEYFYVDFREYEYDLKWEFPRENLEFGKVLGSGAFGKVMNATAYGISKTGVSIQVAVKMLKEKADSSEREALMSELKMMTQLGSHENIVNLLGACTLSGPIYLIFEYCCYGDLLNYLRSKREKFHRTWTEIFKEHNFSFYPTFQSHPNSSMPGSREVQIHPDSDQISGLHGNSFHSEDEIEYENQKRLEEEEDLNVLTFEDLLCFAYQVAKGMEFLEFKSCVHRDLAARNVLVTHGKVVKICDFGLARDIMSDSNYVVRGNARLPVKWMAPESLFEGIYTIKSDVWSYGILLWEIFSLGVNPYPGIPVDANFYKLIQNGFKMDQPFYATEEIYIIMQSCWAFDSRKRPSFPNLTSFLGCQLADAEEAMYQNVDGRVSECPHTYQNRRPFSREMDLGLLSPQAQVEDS

[5] = target: panel of more than 300 wild-type and mutant kinases (313 kinase panel) (Homo sapiens, UniProt P29317); conditions: kinase EPHA2; compound at 1 μM
[6] = target: panel of more than 300 wild-type and mutant kinases (313 kinase panel) (Homo sapiens, UniProt P06213); conditions: kinase INSR; compound at 1 μM
[7] = target: panel of more than 300 wild-type and mutant kinases (313 kinase panel) (Homo sapiens, UniProt P54646); conditions: kinase AMPKα2/β1/γ1; 1 μM compound
[8] = target: panel of more than 300 wild-type and mutant kinases (313 kinase panel) (Homo sapiens, UniProt P17612); conditions: kinase PKACα; 1 μM
[9] = target: panel of more than 300 wild-type and mutant kinases (313 kinase panel) (Homo sapiens, UniProt P22455, V550L); conditions: kinase FGFR4(V550L); compound at 1 μM
[10] = target: panel of more than 300 wild-type and mutant kinases (313 kinase panel) (Homo sapiens, UniProt Q9Y6E0); conditions: kinase MST3; 1 μM

Chain of panel of more than 300 wild-type and mutant kinases (313 kinase panel) (Homo sapiens, UniProt P08581, Y1235D) (P08581 25-1390 Y1235D): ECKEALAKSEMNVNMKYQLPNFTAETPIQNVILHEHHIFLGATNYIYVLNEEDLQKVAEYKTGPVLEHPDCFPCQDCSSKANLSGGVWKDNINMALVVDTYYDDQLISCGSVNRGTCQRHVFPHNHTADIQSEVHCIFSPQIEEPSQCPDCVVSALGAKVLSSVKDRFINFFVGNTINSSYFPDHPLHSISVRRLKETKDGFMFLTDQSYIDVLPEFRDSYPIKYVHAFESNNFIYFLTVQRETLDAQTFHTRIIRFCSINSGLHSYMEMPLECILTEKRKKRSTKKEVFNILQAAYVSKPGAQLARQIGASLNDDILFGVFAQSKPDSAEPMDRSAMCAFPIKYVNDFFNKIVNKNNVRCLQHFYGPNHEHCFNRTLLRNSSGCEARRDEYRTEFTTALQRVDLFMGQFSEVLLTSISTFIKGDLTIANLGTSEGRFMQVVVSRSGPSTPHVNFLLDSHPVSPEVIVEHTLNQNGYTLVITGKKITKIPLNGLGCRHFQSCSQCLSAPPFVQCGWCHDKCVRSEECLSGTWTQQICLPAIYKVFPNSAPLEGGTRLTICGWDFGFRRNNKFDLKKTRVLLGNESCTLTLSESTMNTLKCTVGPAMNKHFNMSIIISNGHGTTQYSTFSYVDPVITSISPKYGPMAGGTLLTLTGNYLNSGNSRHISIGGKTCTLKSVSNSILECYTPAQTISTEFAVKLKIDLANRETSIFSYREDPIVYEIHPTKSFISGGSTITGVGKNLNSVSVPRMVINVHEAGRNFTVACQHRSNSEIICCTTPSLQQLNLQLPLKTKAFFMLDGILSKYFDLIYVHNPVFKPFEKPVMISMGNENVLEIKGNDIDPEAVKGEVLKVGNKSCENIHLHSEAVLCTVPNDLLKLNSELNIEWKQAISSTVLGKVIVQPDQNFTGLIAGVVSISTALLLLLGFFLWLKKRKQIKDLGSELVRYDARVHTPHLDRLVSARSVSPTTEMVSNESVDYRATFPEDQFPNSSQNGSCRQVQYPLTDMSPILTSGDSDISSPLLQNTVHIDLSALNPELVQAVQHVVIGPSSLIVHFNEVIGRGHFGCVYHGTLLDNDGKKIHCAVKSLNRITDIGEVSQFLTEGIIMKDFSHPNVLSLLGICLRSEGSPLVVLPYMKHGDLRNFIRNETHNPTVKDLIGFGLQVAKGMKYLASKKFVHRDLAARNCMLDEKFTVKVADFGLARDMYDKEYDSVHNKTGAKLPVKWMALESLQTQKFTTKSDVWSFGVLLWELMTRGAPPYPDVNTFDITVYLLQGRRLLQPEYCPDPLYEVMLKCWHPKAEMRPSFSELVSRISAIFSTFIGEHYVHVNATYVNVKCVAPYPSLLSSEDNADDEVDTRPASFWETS
Chain of panel of more than 300 wild-type and mutant kinases (313 kinase panel) (Homo sapiens, UniProt P07949, Y791F) (P07949 29-1114 Y791F): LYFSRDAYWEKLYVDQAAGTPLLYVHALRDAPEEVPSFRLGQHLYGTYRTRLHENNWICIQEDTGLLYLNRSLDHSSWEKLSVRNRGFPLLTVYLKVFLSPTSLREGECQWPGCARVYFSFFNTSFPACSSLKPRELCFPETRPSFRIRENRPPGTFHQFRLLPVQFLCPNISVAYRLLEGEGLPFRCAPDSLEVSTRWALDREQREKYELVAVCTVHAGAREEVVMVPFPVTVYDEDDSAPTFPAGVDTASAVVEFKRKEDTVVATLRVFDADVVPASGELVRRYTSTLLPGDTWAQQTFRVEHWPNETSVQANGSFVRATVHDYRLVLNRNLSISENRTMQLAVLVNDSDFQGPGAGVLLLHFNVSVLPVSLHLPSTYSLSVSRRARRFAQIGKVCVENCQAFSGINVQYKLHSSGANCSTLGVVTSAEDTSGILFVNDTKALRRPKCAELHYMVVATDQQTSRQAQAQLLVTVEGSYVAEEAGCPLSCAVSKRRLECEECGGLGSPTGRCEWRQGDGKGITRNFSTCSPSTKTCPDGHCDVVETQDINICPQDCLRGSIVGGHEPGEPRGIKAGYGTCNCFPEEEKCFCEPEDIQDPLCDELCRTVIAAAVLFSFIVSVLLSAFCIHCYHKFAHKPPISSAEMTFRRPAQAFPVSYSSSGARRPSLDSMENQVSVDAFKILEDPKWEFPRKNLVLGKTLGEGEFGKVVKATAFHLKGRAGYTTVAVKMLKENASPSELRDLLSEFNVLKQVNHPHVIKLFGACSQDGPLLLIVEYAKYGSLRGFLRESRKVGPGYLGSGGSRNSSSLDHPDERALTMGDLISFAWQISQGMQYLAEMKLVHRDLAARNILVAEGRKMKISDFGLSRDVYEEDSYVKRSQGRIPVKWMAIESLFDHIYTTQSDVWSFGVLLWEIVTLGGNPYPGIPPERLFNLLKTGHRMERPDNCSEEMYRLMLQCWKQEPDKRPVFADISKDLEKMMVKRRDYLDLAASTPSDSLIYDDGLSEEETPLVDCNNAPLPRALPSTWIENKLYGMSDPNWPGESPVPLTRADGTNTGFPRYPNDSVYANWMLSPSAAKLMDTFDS
Chain of panel of more than 300 wild-type and mutant kinases (313 kinase panel) (Homo sapiens, UniProt P22455, V550L) (P22455 22-802 V550L): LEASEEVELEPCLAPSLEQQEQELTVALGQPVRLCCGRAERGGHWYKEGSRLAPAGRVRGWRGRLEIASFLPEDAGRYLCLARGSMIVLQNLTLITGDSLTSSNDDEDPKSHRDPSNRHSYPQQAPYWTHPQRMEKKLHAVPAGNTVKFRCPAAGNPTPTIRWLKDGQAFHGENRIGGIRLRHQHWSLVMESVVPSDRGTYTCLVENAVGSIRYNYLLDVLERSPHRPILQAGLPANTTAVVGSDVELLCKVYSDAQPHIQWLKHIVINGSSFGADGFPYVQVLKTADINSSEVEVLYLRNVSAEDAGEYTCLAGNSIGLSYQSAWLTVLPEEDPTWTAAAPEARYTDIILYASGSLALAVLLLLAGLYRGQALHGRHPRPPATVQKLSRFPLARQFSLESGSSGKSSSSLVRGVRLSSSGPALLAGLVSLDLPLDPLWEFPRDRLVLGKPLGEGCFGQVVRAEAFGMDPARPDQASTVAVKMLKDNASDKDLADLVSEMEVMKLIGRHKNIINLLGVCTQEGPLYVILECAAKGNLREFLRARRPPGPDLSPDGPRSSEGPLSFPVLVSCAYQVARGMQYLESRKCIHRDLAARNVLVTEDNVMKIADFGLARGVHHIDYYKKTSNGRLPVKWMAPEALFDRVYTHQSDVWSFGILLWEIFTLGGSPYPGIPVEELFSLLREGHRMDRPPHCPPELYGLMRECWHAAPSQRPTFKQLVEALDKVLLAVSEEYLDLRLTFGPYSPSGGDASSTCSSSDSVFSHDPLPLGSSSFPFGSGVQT
Chain of panel of more than 300 wild-type and mutant kinases (313 kinase panel) (Homo sapiens, UniProt P06213) (P06213 28-1382, stated change not applied): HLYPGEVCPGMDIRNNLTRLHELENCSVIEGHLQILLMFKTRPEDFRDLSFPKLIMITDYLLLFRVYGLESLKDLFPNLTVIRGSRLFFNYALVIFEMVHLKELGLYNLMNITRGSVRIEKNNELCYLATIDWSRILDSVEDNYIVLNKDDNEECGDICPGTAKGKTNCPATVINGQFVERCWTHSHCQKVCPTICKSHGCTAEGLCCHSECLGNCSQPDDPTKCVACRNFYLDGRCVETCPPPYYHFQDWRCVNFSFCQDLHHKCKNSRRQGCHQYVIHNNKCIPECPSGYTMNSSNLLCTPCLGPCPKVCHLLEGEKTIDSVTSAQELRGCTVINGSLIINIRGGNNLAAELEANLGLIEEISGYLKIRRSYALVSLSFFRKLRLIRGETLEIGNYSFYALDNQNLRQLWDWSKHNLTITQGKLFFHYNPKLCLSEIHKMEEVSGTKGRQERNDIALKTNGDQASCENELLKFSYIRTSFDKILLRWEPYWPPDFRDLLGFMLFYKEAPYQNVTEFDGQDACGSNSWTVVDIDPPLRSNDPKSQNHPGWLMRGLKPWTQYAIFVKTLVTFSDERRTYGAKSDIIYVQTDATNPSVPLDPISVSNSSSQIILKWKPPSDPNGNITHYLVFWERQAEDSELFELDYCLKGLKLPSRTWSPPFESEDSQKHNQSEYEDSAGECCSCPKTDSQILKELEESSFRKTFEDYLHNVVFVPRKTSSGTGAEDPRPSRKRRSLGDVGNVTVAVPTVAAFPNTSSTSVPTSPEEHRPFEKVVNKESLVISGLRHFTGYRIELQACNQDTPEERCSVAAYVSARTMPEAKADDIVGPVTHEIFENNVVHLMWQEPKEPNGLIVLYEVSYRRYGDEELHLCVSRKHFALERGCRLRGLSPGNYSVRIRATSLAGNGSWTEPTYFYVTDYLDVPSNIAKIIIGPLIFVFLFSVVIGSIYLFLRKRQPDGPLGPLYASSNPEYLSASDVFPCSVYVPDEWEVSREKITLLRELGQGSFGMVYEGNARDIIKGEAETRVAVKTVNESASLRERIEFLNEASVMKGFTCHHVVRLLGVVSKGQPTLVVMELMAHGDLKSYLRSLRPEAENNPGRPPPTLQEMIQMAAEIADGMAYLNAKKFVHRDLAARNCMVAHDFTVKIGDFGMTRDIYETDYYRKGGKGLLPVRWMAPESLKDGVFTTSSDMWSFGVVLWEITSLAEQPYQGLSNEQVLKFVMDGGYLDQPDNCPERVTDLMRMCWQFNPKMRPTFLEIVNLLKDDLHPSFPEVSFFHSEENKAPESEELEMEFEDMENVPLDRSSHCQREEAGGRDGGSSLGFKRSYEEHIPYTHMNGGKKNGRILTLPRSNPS

Compound	%-inhibition of MET(Y1235D) [1] [%]	%-inhibition of LTK [2] [%]	%-inhibition of RET(Y791F) ([3]; kinase RET(Y791F), 1 μM) [%]	%-inhibition of FLT3 [4] [%]	%-inhibition of EPHA2 [5] [%]	%-inhibition of INSR [6] [%]	%-inhibition, AMPKα2/β1/γ1 [7] [%]	%-inhibition of PKACα [8] [%]	%-inhibition of FGFR4(V550L) [9] [%]	%-inhibition of MST3 [10] [%]	%-inhibition of RET(Y791F) ([3]; 1 µM) [%]
CO[C@H]1C[C@@H]2CC[C@@H](C)[C@@](O)(O2)C(=O)C(=O)N2CCCC[C@H]2C(=O)O[C@H]([C@H](C)C[C@@H]2CC[C@@H](OCCO)[C@H](OC)C2)CC(=O)[C@H](C)/C=C(\C)[C@@H](O)[C@@H](OC)C(=O)[C@H](C)C[C@H](C)/C=C/C=C/C=C/1C [everolimus]	-5	-12	-3.57	2.25	-4	-3.77	-6	-6	-10	0.288	
CNC(=O)c1cc(Oc2ccc(NC(=O)Nc3ccc(Cl)c(C(F)(F)F)c3)c(F)c2)ccn1 [regorafenib]	-1.72	-1.56		68	88	-2.79	16	-5.47	3.37	-6.62	102
